Literature values in patent US11951104B2 (LIVZON PHARMACEUTICAL GROUP INC, priority 2018, dated 2024).

Experiments:
5-HT1A receptors = target: T1, 5-HT1A receptors (Homo sapiens, UniProt P08908); details: background
T1 sequence (P08908 1-422): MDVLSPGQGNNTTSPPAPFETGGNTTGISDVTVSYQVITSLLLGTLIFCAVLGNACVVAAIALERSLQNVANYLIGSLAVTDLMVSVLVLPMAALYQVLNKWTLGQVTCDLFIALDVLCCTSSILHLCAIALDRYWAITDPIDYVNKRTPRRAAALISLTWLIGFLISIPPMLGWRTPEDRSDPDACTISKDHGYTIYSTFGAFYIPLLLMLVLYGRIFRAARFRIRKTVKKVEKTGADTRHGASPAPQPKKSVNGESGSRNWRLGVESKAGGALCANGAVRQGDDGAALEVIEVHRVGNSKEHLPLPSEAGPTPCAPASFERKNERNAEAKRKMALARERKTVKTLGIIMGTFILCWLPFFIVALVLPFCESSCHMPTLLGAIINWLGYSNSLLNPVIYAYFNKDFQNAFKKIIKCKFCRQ

5-HT2A receptors = 5-HT2A receptors (Homo sapiens, UniProt P28223); details: background
Chain of 5-HT2A receptors (P28223 whole entry): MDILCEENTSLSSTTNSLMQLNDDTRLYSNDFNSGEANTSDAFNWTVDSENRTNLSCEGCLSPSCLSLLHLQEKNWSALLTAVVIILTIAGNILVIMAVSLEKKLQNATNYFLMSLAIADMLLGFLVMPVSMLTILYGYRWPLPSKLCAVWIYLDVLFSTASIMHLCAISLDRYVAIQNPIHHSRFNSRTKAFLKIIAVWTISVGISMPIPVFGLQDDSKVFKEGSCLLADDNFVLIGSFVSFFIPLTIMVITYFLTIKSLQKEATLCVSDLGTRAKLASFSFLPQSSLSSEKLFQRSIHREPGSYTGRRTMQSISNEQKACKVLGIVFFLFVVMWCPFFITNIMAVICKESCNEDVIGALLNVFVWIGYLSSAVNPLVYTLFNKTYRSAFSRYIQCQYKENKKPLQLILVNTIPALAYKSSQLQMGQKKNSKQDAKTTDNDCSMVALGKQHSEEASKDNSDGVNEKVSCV

Structure (SMILES): O=C1CCc2ccc(OCCCCN3CCN(c4cccc(Cl)c4Cl)CC3)cc2N1 [aripiprazole]
- affinity for 5-HT1A receptors (5-HT1A receptors): high affinity
- affinity for 5-HT2A receptors (5-HT2A receptors): high affinity
